Laboratory results taken from BindingDB's records for doi:10.1016/s0960-894x(99)00064-5 (Institut De Chimie Organique De L'Universit&#233, 1999).

Key:
[1] = target: Beta-galactosidase (Canavalia ensiformis); assay: Inhibition constant against beta-galactosidase enzyme of jack bean was reported
[2] = target: Beta-galactosidase (Canavalia ensiformis); assay: as above; remark: listed apart in the source

Ki [1]: 7.5 µM | IC50 [2]: 9.4 µM
Structure (SMILES): CC(=O)N[C@H]1C(O)O[C@H](C(O)CO)[C@@H]1C[C@H]1O[C@H](CO)[C@@H](O)[C@H](O)[C@@H]1O (some centres not stated) [N-[2,5-Dihydroxy-6-hydroxymethyl-4-(3,4,5-trihydroxy-6-hydroxymethyl-tetrahydro-pyran-2-ylmethyl)-tetrahydro-pyran-3-yl]-acetamide and N-[5-(1,2-Dihydroxy-ethyl)-2-hydroxy-4-(3,4,5-trihydroxy-6-hydroxymethyl-tetrahydro-pyran-2-ylmethyl)-tetrahydro-furan-3-yl]-acetamide]
